Like-named read-outs stand apart in the source and are kept apart here.
What was measured:
L-1210 cells = assay: Cytotoxicity L-1210 (no light), cytostatic activity; format: cell-based, human; conditions: no light; for Cytotoxicity L-1210 (no light), concentration giving 50%: 50% effect
Text: Column L1210 corresponds to the cytostatic activity.

[1] = test system: RBY-79 (indifferently named Y-79) cells; assay: RBY-79 (Y79) cell cytotoxicity / photocytotoxicity; conditions: for Photocytotoxicity RBY-79, concentration giving 50%: with light; for cytotoxic for Y79 (in words): without light, remark of the inventors
Text: Columns HT29 and Y79 (═RBY79), without light, correspond to the cytotoxic activity.

[2] = test system: human colic adenocarcinoma cell line HT29; assay: HT29 cell survival (MTT assay) after 24 h incubation, with or without light irradiation; conditions: for Photocytotoxicity HT 29, concentration giving 50%: 50% effect, with light; for cytotoxic for HT29 (in words): without light, remark of the inventors
Protocol: HT29 cells were cultivated in Dulbecco's MEM supplemented with 10% fetal calf serum (FCS). Cells from log-phase culture were seeded in 24-microwell plates (1 mL-5×10^4 cells/well) and kept at 37° C. in a water-jacketed incubator for 2 days under an air/CO2 atmosphere (5% CO2). Tested compounds, in DMSO solution, were added under the minimum volume (5 μL) to reach a concentration ranging from 0.1 to 10 μg/mL. Controls cells received 5 μL of DMSO free of dye. Plates were incubated 24 h, then medium was removed and the cells were washed twice with phosphate buffered saline (PBS) before addition of fresh medium free of drug and irradiation with visible light using a home made “light box” giving a fluence of 3.8 mW/cm^2 on the whole visible spectrum. Irradiation with red light was carried out using the same device fitted with an orange filter (0% T at 520 nm and 80% T at 590 nm) leading to a fluence of 2 mW/cm^2.
Plates were reincubated for 3 days before evaluation of the cell survival using the MTT assay (T. Mosmann, “Rapid calorimetric assay for cellular growth and survival. Application to proliferation assays”. J. Immunol. Methods 65,55-63,1983) using 30 min incubation with 100 μg well of 3-[4,5-dimethylthiazol-2-yl]-2,5-diphenyl tetrazolium bromide (MTT, Sigma). After removal of the medium, formazan crystals were taken up with 100 μL of DMSO and absorbance at 540 ni was measured with a Bio-Rad microplate reader (model 450); survival was expressed as % of untreated controls.

[3] = read-out: Y79 IC50 (μM) With 2J/cm^2, irradiation with filter (0% T at 520 nm, 80% T at 590 nm), 3.5 mW/cm^2, 10 min
[4] = read-out: Y79 IC50 (μM) without light, without light (cytotoxic activity)
[5] = read-out: HT 29 IC50 (μM) with 2J/cm^2, irradiation with filter (0% T at 520 nm, 80% T at 590 nm), 3.5 mW/cm^2, 10 min
[6] = read-out: HT 29 IC50 (μM) without light, without light (cytotoxic activity)

| Molecule | IC50 [1, 3] [µM] | IC50 [1, 4] [µM] | IC50 [2, 5] [µM] | IC50 [2, 6] [µM] | other results |
| --- | --- | --- | --- | --- | --- |
| OC[C@H]1O[C@@H](Sc2c(F)c(F)c(-c3c4nc(c(-c5c(F)c(F)c(S[C@@H]6O[C@H](CO)[C@@H](O)[C@H](O)[C@H]6O)c(F)c5F)c5ccc([nH]5)c(-c5c(F)c(F)c(S[C@@H]6O[C@H](CO)[C@@H](O)[C@H](O)[C@H]6O)c(F)c5F)c5nc(c(-c6c(F)c(F)c(S[C@@H]7O[C@H](CO)[C@@H](O)[C@H](O)[C@H]7O)c(F)c6F)c6ccc3[nH]6)C=C5)C=C4)c(F)c2F)[C@H](O)[C@@H](O)[C@@H]1O [Compound 25, TPP F4(p-S-β-GluOH)4] | 4 | > 10 | > 10 | > 10 | Cytotoxicity L-1210 (no light), % at 10 μg/ml (L-1210 cells): 18% 10 μg/ml; Photocytotoxicity RBY-79, concentration giving 50% ([1]; 50% effect): inactive; Photocytotoxicity HT 29, concentration giving 50% [2]: inactive |
| O[C@@H]1[C@@H](O)[C@H](Sc2c(F)c(F)c(-c3c4nc(c(-c5c(F)c(F)c(S[C@@H]6OC[C@@H](O)[C@H](O)[C@H]6O)c(F)c5F)c5ccc([nH]5)c(-c5c(F)c(F)c(S[C@@H]6OC[C@@H](O)[C@H](O)[C@H]6O)c(F)c5F)c5nc(c(-c6c(F)c(F)c(S[C@@H]7OC[C@@H](O)[C@H](O)[C@H]7O)c(F)c6F)c6ccc3[nH]6)C=C5)C=C4)c(F)c2F)OC[C@H]1O [Compound 27, TPP F4(p-S-β-XylOH)4] | 1 | – | 5 | > 10 | Cytotoxicity L-1210 (no light), concentration giving 50% (L-1210 cells): 14 µg/mL; Photocytotoxicity RBY-79, concentration giving 50% ([1]; 50% effect): 50% 1.6 μg/ml; Y79 IC50 (μM) without light ([1]; without light (cytotoxic activity)): Inactive for μM; Photocytotoxicity HT 29, concentration giving 50% [2]: 7.5 µg/mL |
| O[C@@H]1[C@@H](O)[C@H](Sc2c(F)c(F)c(-c3c4nc(c(-c5c(F)c(F)c(S[C@@H]6OC[C@@H](O)[C@H](O)[C@H]6O)c(F)c5F)c5ccc([nH]5)c(-c5c(F)c(F)c(S[C@@H]6OC[C@@H](O)[C@H](O)[C@H]6O)c(F)c5F)c5nc(c(-c6c(F)c(F)c(F)c(F)c6F)c6ccc3[nH]6)C=C5)C=C4)c(F)c2F)OC[C@H]1O [Compound 28, TPP F4(p-S-β-XylOH)3] | 1.2 | > 10 | 2.6 | > 10 | Cytotoxicity L-1210 (no light), concentration giving 50% (L-1210 cells): 50% 9 μg/ml; Photocytotoxicity RBY-79, concentration giving 50% ([1]; 50% effect): 1.7 µg/mL; Photocytotoxicity HT 29, concentration giving 50% [2]: 50% 3.7 μg/ml |
| OC[C@H]1O[C@H](Sc2c(F)c(F)c(-c3c4nc(c(-c5c(F)c(F)c(S[C@H]6O[C@H](CO)[C@@H](O)[C@H](O)[C@@H]6O)c(F)c5F)c5ccc([nH]5)c(-c5c(F)c(F)c(S[C@H]6O[C@H](CO)[C@@H](O)[C@H](O)[C@@H]6O)c(F)c5F)c5nc(c(-c6c(F)c(F)c(S[C@H]7O[C@H](CO)[C@@H](O)[C@H](O)[C@@H]7O)c(F)c6F)c6ccc3[nH]6)C=C5)C=C4)c(F)c2F)[C@@H](O)[C@@H](O)[C@@H]1O [Compound 29, TPP F4(p-S-α-MannOH)4] | 3.3 | > 10 | 2.4 | > 10 | – |
| OC[C@H]1O[C@H](Sc2c(F)c(F)c(/C3=c4\cc/c([nH]4)=C(\c4c(F)c(F)c(F)c(F)c4F)C4=NC(C=C4)[C@@H](c4c(F)c(F)c(F)c(F)c4F)c4ccc([nH]4)/C(c4c(F)c(F)c(S[C@H]5O[C@H](CO)[C@@H](O)[C@H](O)[C@@H]5O)c(F)c4F)=C4/C=CC3=N4)c(F)c2F)[C@@H](O)[C@@H](O)C1O (stereo partly shown) [Compound 31] | – | – | – | – | Photocytotoxicity RBY-79, % at 2 μg/ml [1]: 80% 2 μg/ml |
| OC[C@H]1O[C@H](Sc2c(F)c(F)c(-c3c4nc(c(-c5c(F)c(F)c(S[C@H]6O[C@H](CO)[C@@H](O)[C@H](O)[C@@H]6O)c(F)c5F)c5ccc([nH]5)c(-c5c(F)c(F)c(S[C@H]6O[C@H](CO)[C@@H](O)[C@H](O)[C@@H]6O)c(F)c5F)c5nc(c(-c6c(F)c(F)c(F)c(F)c6F)c6ccc3[nH]6)C=C5)C=C4)c(F)c2F)[C@@H](O)[C@@H](O)[C@@H]1O [Compound 33, TPP F4(p-S-α-MannOH)3] | 2.7 | > 10 | 1.7 | > 10 | Photocytotoxicity RBY-79, % at 2 μg/ml [1]: 90% 2 μg/ml |
| O[C@@H]1[C@@H](O)[C@H](SCc2ccc(-c3c4nc(c(-c5ccc(CS[C@@H]6OC[C@@H](O)[C@H](O)[C@H]6O)cc5)c5ccc([nH]5)c(-c5ccc(CS[C@@H]6OC[C@@H](O)[C@H](O)[C@H]6O)cc5)c5nc(c(-c6ccc(CS[C@@H]7OC[C@@H](O)[C@H](O)[C@H]7O)cc6)c6ccc3[nH]6)C=C5)C=C4)cc2)OC[C@H]1O [Compound 64, TPP(p-CH2-S-β-XylOH)4] | – | 3.8 | 4.5 | > 10 | Cytotoxicity L-1210 (no light), % at 10 μg/ml (L-1210 cells): 32%; RBY-79, concentration giving 50% with light or not ([1]; 50% effect, with light or not): 50% at 7 μg/ml; Y79 IC50 (μM) With 2J/cm^2 ([1]; irradiation with filter (0% T at 520 nm, 80% T at 590 nm), 3.5 mW/cm^2, 10 min): Inactive; cytotoxic for Y79 (in words) [1]: cytotoxic; Photocytotoxicity HT 29, % at 10 μg/ml [2]: 30% at |
| OC[C@H]1O[C@H](SCc2ccc(-c3c4nc(c(-c5ccc(CS[C@H]6O[C@H](CO)[C@@H](O)[C@H](O)[C@@H]6O)cc5)c5ccc([nH]5)c(-c5ccc(CS[C@H]6O[C@H](CO)[C@@H](O)[C@H](O)[C@@H]6O)cc5)c5nc(c(-c6ccc(CS[C@H]7O[C@H](CO)[C@@H](O)[C@H](O)[C@@H]7O)cc6)c6ccc3[nH]6)C=C5)C=C4)cc2)[C@@H](O)[C@@H](O)[C@@H]1O [Compound 66, TPP(p-CH2-S-α-MannOH)4] | 15 | 28 | 10 | 21 | Cytotoxicity L-1210 (no light), % at 10 μg/ml (L-1210 cells): 0% 10 μg/ml; Photocytotoxicity RBY-79, % at 10 μg/ml ([1]; 10 μg/ml): 20%; Photocytotoxicity HT 29, % at 10 μg/ml [2]: 40% |
| OC[C@H]1O[C@H](OCCOCCOc2ccc(-c3c4nc(c(-c5ccc(OCCOCCO[C@H]6O[C@H](CO)[C@@H](O)[C@H](O)[C@@H]6O)cc5)c5ccc([nH]5)c(-c5ccc(OCCOCCO[C@H]6O[C@H](CO)[C@@H](O)[C@H](O)[C@@H]6O)cc5)c5nc(c(-c6ccccc6)c6ccc3[nH]6)C=C5)C=C4)cc2)[C@@H](O)[C@@H](O)[C@@H]1O [Compound 67, TPP(p-O-DEG-O-α-Mann)3] | 0.3 ± 0.08 | > 10 | 0.7 ± 0.4 | > 10 | Cytotoxicity L-1210 (no light), concentration giving 50% (L-1210 cells): 50% 8 μg/ml; Photocytotoxicity RBY-79, % at 1 μg/ml ([1]; 1 μg/ml): 0% at 1 μg/ml; Photocytotoxicity RBY-79, % at 2 μg/ml [1]: 80% at 2 μg/ml,; Photocytotoxicity RBY-79, concentration giving 50% ([1]; 50% effect): 50% at 1.5 μg/ml,; Photocytotoxicity HT 29, concentration giving 50% [2]: 1.5 µg/mL |
| OC[C@H]1O[C@H](SCCOCCOCCOc2ccc(-c3c4nc(c(-c5ccc(OCCOCCOCCS[C@H]6O[C@H](CO)[C@@H](O)[C@H](O)[C@@H]6O)cc5)c5ccc([nH]5)c(-c5ccc(OCCOCCOCCS[C@H]6O[C@H](CO)[C@@H](O)[C@H](O)[C@@H]6O)cc5)c5nc(c(-c6ccccc6)c6ccc3[nH]6)C=C5)C=C4)cc2)[C@@H](O)[C@@H](O)[C@@H]1O [Compound 74, 5,10,15-tri(para-10-S-α-D-thiomanosyloxy-O-triethylene glycoloxyphenyl)-20-phenylporphyrin] | 0.5 ± 0.3 | 11 ± 5 | 4.8 | 10.5 | – |
| OC[C@H]1O[C@@H](Oc2ccc(-c3c4nc(c(-c5ccc(O[C@@H]6O[C@H](CO)[C@@H](O)[C@H](O)[C@H]6O)cc5)c5ccc([nH]5)c(-c5ccc(O[C@@H]6O[C@H](CO)[C@@H](O)[C@H](O)[C@H]6O)cc5)c5nc(c(-c6ccccc6)c6ccc3[nH]6)C=C5)C=C4)cc2)[C@H](O)[C@@H](O)[C@@H]1O [TPP(p-O-β-GluOH)3, reference compound] | 0.9 | > 15 | 1.5 ± 0.2 | > 15 | – |
| OC[C@H]1O[C@@H](Oc2ccc(-c3c4nc(c(-c5ccc(O[C@@H]6O[C@H](CO)[C@@H](O)[C@H](O)[C@H]6O)cc5)c5ccc([nH]5)c(-c5ccc(O[C@@H]6O[C@H](CO)[C@@H](O)[C@H](O)[C@H]6O)cc5)c5nc(c(-c6ccc(O[C@@H]7O[C@H](CO)[C@@H](O)[C@H](O)[C@H]7O)cc6)c6ccc3[nH]6)C=C5)C=C4)cc2)[C@H](O)[C@@H](O)[C@@H]1O [TPP(p-O-β-GluOH)4, reference compound] | 5.2 ± 4 | 7 ± 4 | > 10 | > 10 | – |
| Oc1ccc(-c2c3nc(c(-c4ccc(O)cc4)c4ccc([nH]4)c(-c4ccc(O)cc4)c4nc(c(-c5ccccc5)c5ccc2[nH]5)C=C4)C=C3)cc1 [TPP(p-OH)3, reference compound] | 1.8 ± 0.1 | > 10 | 1.65 ± 0.07 | > 15 | – |
| Oc1ccc(-c2c3nc(c(-c4ccc(O)cc4)c4ccc([nH]4)c(-c4ccc(O)cc4)c4nc(c(-c5ccc(O)cc5)c5ccc2[nH]5)C=C4)C=C3)cc1 [TPP(p-OH)4, reference compound] | 0.3 | 4.7 ± 2.5 | 0.8 ± 1 | 7.75 ± 3 | cytotoxic for Y79 (in words) [1]: cytotoxic; cytotoxic for HT29 (in words) [2]: cytotoxic |
| Oc1cccc(-c2c3nc(c(-c4cccc(O)c4)c4ccc([nH]4)c(-c4cccc(O)c4)c4nc(c(-c5cccc(O)c5)c5ccc2[nH]5)CC4)C=C3)c1 [m-THPC, reference compound] | – | – | – | – | IC50 ([1]; Homo sapiens, Y79, light or radiation study, 10 min, read-out: Y79 IC50 (μM) With 2J/cm^2): 0.6 ± 0.03 µM; IC50 ([1]; Homo sapiens, Y79, read-out: Y79 IC50 (μM) without light): > 10 µM; cytotoxic for Y79 (in words) [1]: cytotoxic; IC50 ([2]; Homo sapiens, HT-29, light or radiation study, 10 min, read-out: HT 29 IC50 (μM) with 2J/cm^2): 0.8 ± 0.3 µM; IC50 ([2]; Homo sapiens, HT-29, read-out: HT 29 IC50 (μM) without light): > 10 µM; cytotoxic for HT29 (in words) [2]: cytotoxic |
| TPPF4(p-O-β-GluOH)4 [Compound 63] | > 10 | > 10 | > 10 | > 10 | Photocytotoxicity RBY-79, % at 10 μg/ml white light ([1]; 10 μg/ml, white light): 37% |
